Reference: patent US8518885B2, “Heterocyclic peptide ketoamides” (Georgia Tech Research Corporation, priority 2008, dated 2013)

Key:
[1] = target: T1, m-calpain (Rattus norvegicus, UniProt Q07009); assay: Fluorimetric FRET-substrate assay of m-calpain inhibition; assay type: biochemical; settings: inhibitor 1 μM; 125 nM m-calpain; 1.3 μM (EDANS)-EPLFAERK-(DABCYL); 4 mM CaCl2; FIG. 1A
T1 sequence (Q07009 1-700): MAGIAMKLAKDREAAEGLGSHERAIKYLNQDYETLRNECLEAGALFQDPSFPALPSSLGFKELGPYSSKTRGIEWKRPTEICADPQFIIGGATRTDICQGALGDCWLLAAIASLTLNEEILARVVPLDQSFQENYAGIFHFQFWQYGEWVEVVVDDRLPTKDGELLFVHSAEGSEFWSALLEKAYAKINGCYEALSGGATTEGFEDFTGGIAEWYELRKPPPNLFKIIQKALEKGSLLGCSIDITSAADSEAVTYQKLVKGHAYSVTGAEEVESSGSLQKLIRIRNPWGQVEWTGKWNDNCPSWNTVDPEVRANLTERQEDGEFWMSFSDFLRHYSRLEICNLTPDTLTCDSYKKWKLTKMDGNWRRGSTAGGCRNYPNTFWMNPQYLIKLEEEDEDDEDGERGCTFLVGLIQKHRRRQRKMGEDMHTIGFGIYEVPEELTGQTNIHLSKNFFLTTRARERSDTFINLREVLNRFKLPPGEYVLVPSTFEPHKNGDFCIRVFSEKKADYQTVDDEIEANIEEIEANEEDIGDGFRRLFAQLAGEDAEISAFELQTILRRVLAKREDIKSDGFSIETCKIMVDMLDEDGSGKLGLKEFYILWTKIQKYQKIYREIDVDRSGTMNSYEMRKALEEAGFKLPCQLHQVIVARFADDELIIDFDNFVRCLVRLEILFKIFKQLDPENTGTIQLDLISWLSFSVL
T1 sequence (Q64537 87-270 partner limits assumed): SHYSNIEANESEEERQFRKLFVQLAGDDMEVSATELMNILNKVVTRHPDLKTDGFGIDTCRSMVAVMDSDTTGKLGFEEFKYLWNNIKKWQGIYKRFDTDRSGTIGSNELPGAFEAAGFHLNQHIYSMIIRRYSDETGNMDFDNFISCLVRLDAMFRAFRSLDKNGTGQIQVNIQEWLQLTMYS
Experimental: (§1) FIG. 1 is a pair of graphs showing the inhibitory effect of Z-Leu-Abu-CONH—(CH2)3-adenin-9-yl, and Z-Leu-Abu-CONH—(CH2)3-(4-methylpiperazin-1-yl) on m-calpain (FIG. 1A) and μI-II (FIG. 1B). Duplicate assays were performed by adding 1.3 μM (EDANS)-EPLFAERK(SEQ ID NO:1)-(DABCYL) (A), 125 nM calpain (B), and 4 mM CaCl2 (C), then averaged to yield the plots shown. Autolytic inactivation of m-calpain, but not μI-II, was observed when no inhibitor was added (X). Immediately following addition of each inhibitor (D), the increase in fluorescence intensity was attenuated.
(§2) Enzymatic activity was monitored in real-time using a 1.5 mL quartz cuvette and a Perkin-Elmer LS50-B Luminescence Spectrophotometer. Duplicate assays were performed with 1.3 μM (EDANS)-EPLFAERK(SEQ ID NO:1)-(DABCYL) and 125 nM μI-II or m-calpain in a buffer solution containing 50 mM HEPES-HCl (pH 7.7) and 10 mM DTT. The reaction was initiated 420 seconds after mixing by the addition of 4 mM CaCl2 and monitored at excitation and emission wavelengths of 335 nm and 500 nm, respectively. After a waiting period of 100 seconds, the inhibitor solution (either Z-Leu-Abu-CONH—(CH2)3-adenin-9-yl, or Z-Leu-Abu-CONH—(CH2)3-(4-methylpiperazin-1-yl) dissolved in DMSO) was added at a concentration of 1 μM (for the m-calpain assays) or 50 μM (for the μI-II assays). […]

[2] = target: μI-II (Rattus norvegicus, UniProt P97571); assay: Fluorimetric FRET-substrate assay of μI-II inhibition; assay type: biochemical; settings: inhibitor 50 μM; 125 nM μI-II; 1.3 μM (EDANS)-EPLFAERK-(DABCYL); 4 mM CaCl2; FIG. 1B
Experimental: as §1, §2

[3] = test system: other cysteine proteases such as cathepsins; settings: literature statement; cited from earlier work
[4] = test system: calpain II; settings: literature statement; cited from earlier work
[5] = target: T2, calpain I (Homo sapiens, UniProt P07384); settings: literature statement; cited from earlier work
T2 sequence (P07384 1-714): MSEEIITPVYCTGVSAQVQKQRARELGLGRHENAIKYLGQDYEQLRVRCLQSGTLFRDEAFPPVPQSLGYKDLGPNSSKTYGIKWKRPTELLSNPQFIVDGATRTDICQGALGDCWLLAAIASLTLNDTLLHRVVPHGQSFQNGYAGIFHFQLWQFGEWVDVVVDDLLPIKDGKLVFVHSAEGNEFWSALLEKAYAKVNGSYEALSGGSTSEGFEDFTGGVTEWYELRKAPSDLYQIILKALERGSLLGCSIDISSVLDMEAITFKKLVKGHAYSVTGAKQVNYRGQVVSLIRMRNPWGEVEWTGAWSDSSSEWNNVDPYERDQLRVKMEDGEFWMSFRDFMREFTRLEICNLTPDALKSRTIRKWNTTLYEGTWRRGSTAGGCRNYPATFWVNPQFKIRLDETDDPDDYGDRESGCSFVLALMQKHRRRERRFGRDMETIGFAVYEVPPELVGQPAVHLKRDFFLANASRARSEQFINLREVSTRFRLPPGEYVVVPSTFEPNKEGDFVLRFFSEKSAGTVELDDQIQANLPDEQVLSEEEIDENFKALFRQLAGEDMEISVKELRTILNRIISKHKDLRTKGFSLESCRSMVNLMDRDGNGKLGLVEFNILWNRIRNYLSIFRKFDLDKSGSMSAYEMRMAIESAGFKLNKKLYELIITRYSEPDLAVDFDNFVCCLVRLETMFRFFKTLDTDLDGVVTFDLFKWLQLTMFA
T2 sequence (P04632 1-268 partner): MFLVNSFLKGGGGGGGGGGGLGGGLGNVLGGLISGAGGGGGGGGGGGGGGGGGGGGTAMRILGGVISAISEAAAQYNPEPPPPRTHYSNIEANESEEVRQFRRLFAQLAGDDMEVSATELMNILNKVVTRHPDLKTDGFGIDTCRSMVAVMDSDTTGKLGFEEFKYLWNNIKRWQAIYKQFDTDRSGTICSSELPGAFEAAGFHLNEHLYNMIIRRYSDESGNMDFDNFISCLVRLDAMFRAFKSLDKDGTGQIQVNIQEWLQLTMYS

Sequence of μI-II (P97571 55-354 limits assumed): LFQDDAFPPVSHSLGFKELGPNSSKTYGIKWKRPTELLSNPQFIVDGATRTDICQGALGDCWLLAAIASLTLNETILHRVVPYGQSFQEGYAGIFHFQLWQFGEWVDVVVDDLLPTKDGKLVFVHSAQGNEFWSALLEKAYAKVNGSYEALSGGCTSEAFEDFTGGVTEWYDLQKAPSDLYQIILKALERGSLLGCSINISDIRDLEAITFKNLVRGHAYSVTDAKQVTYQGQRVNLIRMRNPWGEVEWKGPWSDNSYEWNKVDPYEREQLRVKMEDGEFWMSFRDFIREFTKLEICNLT

Compound	attenuation of the increase in fluorescence intensity (cleavage of FRET substrate) by m-calpain [1]	attenuation of the increase in fluorescence intensity (cleavage of FRET substrate) by μI-II [2]	inhibitory activity toward other cysteine proteases such as cathepsins [3]	inhibition of calpain II [4]	inhibition of calpain I [5]
CCC(NC(=O)[C@H](CC(C)C)NC(=O)OCc1ccccc1)C(=O)C(=O)NCCCN1CCN(C)CC1 (stereo partly drawn) [3-(Benzyloxycarbonyl-L-leucylamino)-N-(3-(4-methylpiperazin-1-yl)propyl)-2-oxopentanamide]	immediately attenuated	immediately attenuated			
CCC(NC(=O)[C@H](CC(C)C)NC(=O)OCc1ccccc1)C(=O)C(=O)NCCCN1CCOCC1 (stereo partly drawn) [AK295, Z-Leu-Abu-CONH—(CH2)3-4-morpholinyl]			some inhibitory activity	potent transition-state inhibitor	potent transition-state inhibitor
CCC(NC(=O)[C@H](CC(C)C)NC(=O)OCc1ccccc1)C(=O)C(=O)NCCCn1cnc2c(N)ncnc21 (stereo partly drawn) [Z-Leu-Abu-CONH—(CH2)3-adenin-9-yl, 3-(Benzyloxycarbonyl-L-leucylamino)-N-(3-(6-amino-9H-purin-9-yl)propyl)-2-oxopentanamide]	more distinct attenuation of fluorescence	more distinct attenuation of fluorescence			
